Key:
Experiment in all cases: relative viability (nuclei count vs DMSO), 5 days (fraction); higher = more cells survive
LCLC-103H = system: LCLC-103H
How it was run: (§1)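 Each reported value is a median over duplicate plates. It expresses relative viability: treated-well nuclei count divided by vehicle-well nuclei count. Lung cancer cell lines in 1536-well plates were dosed by pin tool a day after seeding, alone with one drug or with a fixed anchor-drug dose plus five library-drug doses (not always all listed) in √10 steps, and nuclei were counted after 5 days.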

LXF-289 = system: LXF-289
How it was run: as §1

NCI-H1355 = system: NCI-H1355
How it was run: as §1

NCI-H1651 = system: NCI-H1651
How it was run: as §1

NCI-H1755 = system: NCI-H1755
How it was run: as §1

NCI-H1792 = system: NCI-H1792
How it was run: as §1

NCI-H1915 = system: NCI-H1915
How it was run: as §1

NCI-H2347 = system: NCI-H2347
How it was run: as §1

NCI-H3122 = system: NCI-H3122
How it was run: as §1

NCI-H322M = system: NCI-H322M
How it was run: as §1

NCI-H441 = system: NCI-H441
How it was run: as §1

NCI-H460 = system: NCI-H460
How it was run: as §1

NCI-H522 = system: NCI-H522
How it was run: as §1

NCI-H596 = system: NCI-H596
How it was run: as §1

NCI-H727 = system: NCI-H727
How it was run: as §1

PC-14 = system: PC-14
How it was run: as §1

RERF-LC-KJ = system: RERF-LC-KJ
How it was run: as §1

SW 900 = system: SW 900
How it was run: as §1

## Nc1ccn([C@@H]2O[C@H](CO)[C@@H](O)[C@@H]2O)c(=O)n1 [Cytarabine] + NC(=O)Nc1cc(-c2cccc(F)c2)sc1C(=O)N[C@H]1CCCNC1 [AZD7762] (partner 0.2 µM)
LCLC-103H; first compound 0.005 µM
  relative viability: 0.763
LCLC-103H; first compound 0.01581 µM
  relative viability: 0.704
LCLC-103H; first compound 0.05 µM
  relative viability: 0.751
LCLC-103H; first compound 0.1581 µM
  relative viability: 0.469
LCLC-103H; first compound 0.5 µM
  relative viability: 0.369
LXF-289; first compound 0.005 µM
  relative viability: 0.927
LXF-289; first compound 0.01581 µM
  relative viability: 0.85
LXF-289; first compound 0.05 µM
  relative viability: 0.442
LXF-289; first compound 0.1581 µM
  relative viability: 0.123
LXF-289; first compound 0.5 µM
  relative viability: 0.0877
NCI-H1355; first compound 0.005 µM
  relative viability: 0.455
NCI-H1355; first compound 0.01581 µM
  relative viability: 0.455
NCI-H1355; first compound 0.05 µM
  relative viability: 0.356
NCI-H1355; first compound 0.1581 µM
  relative viability: 0.181
NCI-H1355; first compound 0.5 µM
  relative viability: 0.188
NCI-H1651; first compound 0.005 µM
  relative viability: 0.484
NCI-H1651; first compound 0.01581 µM
  relative viability: 0.447
NCI-H1651; first compound 0.05 µM
  relative viability: 0.297
NCI-H1651; first compound 0.1581 µM
  relative viability: 0.114
NCI-H1651; first compound 0.5 µM
  relative viability: 0.0958
NCI-H1755; first compound 0.005 µM
  relative viability: 0.501
NCI-H1755; first compound 0.01581 µM
  relative viability: 0.314
NCI-H1755; first compound 0.05 µM
  relative viability: 0.334
NCI-H1755; first compound 0.1581 µM
  relative viability: 0.372
NCI-H1755; first compound 0.5 µM
  relative viability: 0.298
NCI-H1792; first compound 0.01581 µM
  relative viability: 0.39
NCI-H1792; first compound 0.05 µM
  relative viability: 0.275
NCI-H1792; first compound 0.1581 µM
  relative viability: 0.0675
NCI-H1792; first compound 0.5 µM
  relative viability: 0.0488
NCI-H1915; first compound 0.005 µM
  relative viability: 0.579
NCI-H1915; first compound 0.01581 µM
  relative viability: 0.386
NCI-H1915; first compound 0.05 µM
  relative viability: 0.241
NCI-H1915; first compound 0.1581 µM
  relative viability: 0.155
NCI-H1915; first compound 0.5 µM
  relative viability: 0.131
NCI-H2347; first compound 0.005 µM
  relative viability: 0.721
NCI-H2347; first compound 0.01581 µM
  relative viability: 0.525
NCI-H2347; first compound 0.05 µM
  relative viability: 0.47
NCI-H2347; first compound 0.1581 µM
  relative viability: 0.369
NCI-H2347; first compound 0.5 µM
  relative viability: 0.286
NCI-H3122; first compound 0.005 µM
  relative viability: 0.943
NCI-H3122; first compound 0.01581 µM
  relative viability: 0.585
NCI-H3122; first compound 0.05 µM
  relative viability: 0.397
NCI-H3122; first compound 0.1581 µM
  relative viability: 0.184
NCI-H3122; first compound 0.5 µM
  relative viability: 0.138
NCI-H322M; first compound 0.005 µM
  relative viability: 0.405
NCI-H322M; first compound 0.01581 µM
  relative viability: 0.494
NCI-H322M; first compound 0.05 µM
  relative viability: 0.405
NCI-H322M; first compound 0.1581 µM
  relative viability: 0.371
NCI-H322M; first compound 0.5 µM
  relative viability: 0.385
NCI-H441; first compound 0.005 µM
  relative viability: 0.982
NCI-H441; first compound 0.01581 µM
  relative viability: 0.912
NCI-H441; first compound 0.05 µM
  relative viability: 0.814
NCI-H441; first compound 0.1581 µM
  relative viability: 0.306
NCI-H441; first compound 0.5 µM
  relative viability: 0.211
NCI-H460; first compound 0.005 µM
  relative viability: 0.209
NCI-H460; first compound 0.01581 µM
  relative viability: 0.0904
NCI-H460; first compound 0.05 µM
  relative viability: 0.0497
NCI-H460; first compound 0.1581 µM
  relative viability: 0.0319
NCI-H460; first compound 0.5 µM
  relative viability: 0.0286
NCI-H522; first compound 0.005 µM
  relative viability: 0.827
NCI-H522; first compound 0.01581 µM
  relative viability: 0.605
NCI-H522; first compound 0.05 µM
  relative viability: 0.72
NCI-H522; first compound 0.1581 µM
  relative viability: 0.426
NCI-H522; first compound 0.5 µM
  relative viability: 0.34
NCI-H596; first compound 0.005 µM
  relative viability: 1
NCI-H596; first compound 0.01581 µM
  relative viability: 1.01
NCI-H596; first compound 0.05 µM
  relative viability: 0.787
NCI-H596; first compound 0.1581 µM
  relative viability: 0.419
NCI-H596; first compound 0.5 µM
  relative viability: 0.343
NCI-H727; first compound 0.005 µM
  relative viability: 0.518
NCI-H727; first compound 0.01581 µM
  relative viability: 0.565
NCI-H727; first compound 0.05 µM
  relative viability: 0.377
NCI-H727; first compound 0.1581 µM
  relative viability: 0.361
NCI-H727; first compound 0.5 µM
  relative viability: 0.418
PC-14; first compound 0.005 µM
  relative viability: 0.346
PC-14; first compound 0.01581 µM
  relative viability: 0.234
PC-14; first compound 0.05 µM
  relative viability: 0.136
PC-14; first compound 0.1581 µM
  relative viability: 0.0783
PC-14; first compound 0.5 µM
  relative viability: 0.0484
RERF-LC-KJ; first compound 0.005 µM
  relative viability: 0.957
RERF-LC-KJ; first compound 0.01581 µM
  relative viability: 0.941
RERF-LC-KJ; first compound 0.05 µM
  relative viability: 0.51
RERF-LC-KJ; first compound 0.1581 µM
  relative viability: 0.381
RERF-LC-KJ; first compound 0.5 µM
  relative viability: 0.322
SW 900; first compound 0.005 µM
  relative viability: 0.741
SW 900; first compound 0.01581 µM
  relative viability: 0.546
SW 900; first compound 0.05 µM
  relative viability: 0.451
SW 900; first compound 0.1581 µM
  relative viability: 0.191
SW 900; first compound 0.5 µM
  relative viability: 0.16
